Experimental data reported in patent US9796726B2, “Dihydroquinoline pyrazolyl compounds” (Hoffmann-La Roche Inc., priority 2014, dated 2017).

Assays:
human CYP11B1 = target: T1, human CYP11B1 (Homo sapiens, UniProt P15538); assay: G-402 cellular enzyme assay, human CYP11B1 (cortisol release, HTRF); assay type: cell-based; settings: stable G-402 cells expressing human CYP11B1; 1 μM Deoxycortisol; 16 h
T1 construct: The expression plasmids contains the ORF for either human/cyno CYP11B1 or CYP11B2; expressed in transfected cells
T1 sequence (P15538 25-503): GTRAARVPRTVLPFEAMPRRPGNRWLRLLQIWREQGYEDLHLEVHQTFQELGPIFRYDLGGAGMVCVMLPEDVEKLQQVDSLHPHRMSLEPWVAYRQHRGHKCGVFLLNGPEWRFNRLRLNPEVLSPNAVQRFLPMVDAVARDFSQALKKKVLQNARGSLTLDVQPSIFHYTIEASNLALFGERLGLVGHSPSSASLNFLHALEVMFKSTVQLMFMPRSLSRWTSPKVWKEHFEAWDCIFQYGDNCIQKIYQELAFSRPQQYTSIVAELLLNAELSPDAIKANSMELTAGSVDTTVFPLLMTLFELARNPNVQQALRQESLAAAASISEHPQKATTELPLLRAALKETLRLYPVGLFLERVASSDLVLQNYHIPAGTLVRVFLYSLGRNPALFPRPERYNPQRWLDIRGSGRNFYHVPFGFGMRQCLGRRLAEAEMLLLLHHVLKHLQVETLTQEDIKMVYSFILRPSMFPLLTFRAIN
From the text: Herein we identified the use of the G-402 cell line as a host cell to ectopically express (transiently or stably) enzymes of the CYP11 family. Specifically we developed stable G-402 cells expressing ectopically human CYP11B1, human CYP11B2, human CYP11A1, cynmolgus CYP11B1 or cynomolgus CYP11B2 enzyme activity. Importantly the identified cell line G-402 expresses co-factors (adrenodoxin and adrenodoxin reductase) important for the activity of the CYP11 family and no relevant enzyme activity of the CYP11 family (in comparison to H295R cells) was detected in these cells. Therefore the G-402 cell line is uniquely suited as a host cell for the ectopic expression of enzymes from the CYP11 family.
G-402 cells can be obtained from ATCC (CRL-1440) and were originally derived from a renal leiomyoblastoma.
The expression plasmids contains the ORF for either human/cyno CYP11B1 or CYP11B2 under the control of a suitable promoter (CMV-promoter) and a suitable resistance marker (neomycin). Using standard techniques the expression plasmid is transfected into G-402 cells and these cells are then selected for expressing the given resistance markers. Individual cell-clones are then selected and assessed for displaying the desired enzymatic activity using 11-Deoxycorticosterone (Cyp11B2) or 11-Deoxycortisol (Cyp11B1) as a substrate.
G-402 cells expressing CYP11 constructs were established as described above and maintained in McCoy's 5a Medium Modified, ATCC Catalog No. 30-2007 containing 10% FCS and 400 μg/ml G418 (Geneticin) at 37° C. under an atmosphere of 5% CO2/95% air. Cellular enzyme assays were performed in DMEM/F12 medium containing 2.5% charcoal treated FCS and appropriate concentration of substrate (0.3-10 uM 11-Deoxycorticosterone, 11-Deoxycortisol or Corticosterone). For assaying enzymatic activity, cells were plated onto 96 well plates and incubated for 16 h. An aliquot of the supernatant is then transferred and analyzed for the concentration of the expected product (Aldosterone for CYP11B2; Cortisol for CYP11B1). The concentrations of these steroids can be determined using HTRF assays from CisBio analyzing either Aldosterone or Cortisol.
Inhibition of the release of produced steroids can be used as a measure of the respective enzyme inhibition by test compounds added during the cellular enzyme assay. The dose dependent inhibition of enzymatic activity by a compound is calculated by means of plotting added inhibitor concentrations (x-axes) vs. measured steroid/product level (y-axes). The inhibition is then calculated by fitting the following 4-parameter sigmoidal function (Morgan-Mercer-Flodin (MMF) model) to the raw data points using the least squares method:
[formula] wherein, A is the maximum y value, B is the EC50 factor determined using XLFit, C is the minimum y value and D is the slope value.
EC50 values for compounds claimed herein were tested with the G402-based assay system described. Cyp11B2 enzyme activity was tested in presence of 1 μM Deoxycorticosterone and variable amounts of inhibitors; Cyp11B1 enzyme activity was tested in presence of 1 μM Deoxycortisol and variable amounts of inhibitors.

[1] = rat, cited from earlier work; for plasma aldosterone: FAD286 following 4 weeks of treatment, spironolactone at 4 and 8 weeks
CYP11B2 = CYP11B2 (Homo sapiens, UniProt P19099); settings: patients with primary aldosteronism, cited from earlier work
Chain of CYP11B2 (P19099 25-503): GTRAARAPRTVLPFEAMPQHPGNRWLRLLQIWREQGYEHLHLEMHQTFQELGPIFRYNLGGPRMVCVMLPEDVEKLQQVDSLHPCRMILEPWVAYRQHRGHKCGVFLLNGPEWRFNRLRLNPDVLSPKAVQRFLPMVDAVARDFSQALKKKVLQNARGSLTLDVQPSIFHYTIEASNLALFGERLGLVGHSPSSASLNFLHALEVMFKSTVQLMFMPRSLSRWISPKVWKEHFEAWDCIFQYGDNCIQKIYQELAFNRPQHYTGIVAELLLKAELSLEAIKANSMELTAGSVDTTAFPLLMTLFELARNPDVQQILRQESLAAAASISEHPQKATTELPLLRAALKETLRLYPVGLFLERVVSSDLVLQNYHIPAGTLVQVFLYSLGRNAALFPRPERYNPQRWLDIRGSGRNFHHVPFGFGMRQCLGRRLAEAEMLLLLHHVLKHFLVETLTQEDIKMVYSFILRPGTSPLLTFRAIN

| EC50 (human CYP11B1) | Compound | other results |
| --- | --- | --- |
| > 30 nM | CN1C(=O)CCc2c1ccc(-c1n[nH]cc1CN1CC3(C1)CN(C(=O)c1cnn(C)c1)C3)c2Cl [Example 53, 5-Chloro-1-methyl-6-[4-[[2-(1-methylpyrazole-4-carbonyl)-2,6-diazaspiro[3.3]heptan-6-yl]methyl]-1H-pyrazol-3-yl]-3,4-dihydroquinolin-2-one] | – |
| > 30 nM | CN1C(=O)CCc2cc(-c3n[nH]cc3CN3CCN(C(=O)c4cnn(C)c4)CC3)cc(Cl)c21 [Example 44, 8-Chloro-1-methyl-6-[4-[[4-(1-methylpyrazole-4-carbonyl)piperazin-1-yl]methyl]-1H-pyrazol-3-yl]-3,4-dihydroquinolin-2-one] | – |
| > 30 nM | CCS(=O)(=O)N1CC2(CN(Cc3cn[nH]c3-c3ccc4c(c3)CCC(=O)N4C)C2)C1 [Example 56, 6-[4-[(2-Ethylsulfonyl-2,6-diazaspiro[3.3]heptan-6-yl)methyl]-1H-pyrazol-3-yl]-1-methyl-3,4-dihydroquinolin-2-one] | – |
| > 30 nM | CN1C(=O)CCc2cc(-c3[nH]ncc3CN3CC4(C3)CN(C(=O)c3nccn3C)C4)ccc21 [Example 63, 1-Methyl-6-[4-[[2-(1-methylimidazole-2-carbonyl)-2,6-diazaspiro[3.3]heptan-6-yl]methyl]-1H-pyrazol-3-yl]-3,4-dihydroquinolin-2-one] | – |
| > 30 nM | CC(=O)N1CCN(Cc2c[nH]nc2-c2ccc3c(c2)CCC(=O)N3C)C[C@H]1C [Example 49, (−)-6-[4-[[(3R)-4-Acetyl-3-methyl-piperazin-1-yl]methyl]-1H-pyrazol-3-yl]-1-methyl-3,4-dihydroquinolin-2-one] | – |

The remaining lines, values behind:

| Compound | EC50 (human CYP11B1) | other results |
| --- | --- | --- |
| CCS(=O)(=O)N1CC2(CN(Cc3c[nH]nc3-c3ccc4c(c3Cl)CCC(=O)N4C)C2)C1 [Example 54, 5-Chloro-6-[4-[(2-ethylsulfonyl-2,6-diazaspiro[3.3]heptan-6-yl)methyl]-1H-pyrazol-3-yl]-1-methyl-3,4-dihydroquinolin-2-one] | > 30 nM | – |
| CN1C(=O)CCc2cc(-c3[nH]ncc3CN3CC4(C3)CN(C(=O)c3cnn(C)c3)C4)cc(Cl)c21 [Example 60, 8-Chloro-1-methyl-6-[4-[[2-(1-methylpyrazole-4-carbonyl)-2,6-diazaspiro[3.3]heptan-6-yl]methyl]-1H-pyrazol-3-yl]-3,4-dihydroquinolin-2-one] | > 30 nM | – |
| CN1C(=O)CCc2cc(-c3[nH]ncc3CN3CC4(C3)CN(C(=O)c3ncccc3Cl)C4)ccc21 [Example 64, 6-[4-[[2-(3-Chloropyridine-2-carbonyl)-2,6-diazaspiro[3.3]heptan-6-yl]methyl]-1H-pyrazol-3-yl]-1-methyl-3,4-dihydroquinolin-2-one] | > 30 nM | – |
| CC(=O)S[C@@H]1CC2=CC(=O)CC[C@]2(C)[C@H]2CC[C@@]3(C)[C@@H](CC[C@@]34CCC(=O)O4)[C@H]12 [spironolactone] | – | plasma aldosterone [1]: increased; angiotensin II and salt-stimulated PAI-1 mRNA expression in the aorta and the heart [1]: enhanced |
| N#Cc1ccc([C@H]2CCc3cncn32)c(F)c1 [LCI699] | – | blood pressure (CYP11B2): mildly decreased; hypokalemia (CYP11B2): corrected; selectivity (effects on the glucocorticoid axis) (CYP11B2): poor selectivity; circulating aldosterone levels (CYP11B2; oral): significantly lower |
| N#Cc1ccc(C2CCCc3cncn32)cc1 (centres unmarked) [FAD286] | – | plasma aldosterone [1]: reduced |
| CCS(=O)(=O)N1CC2(CN(Cc3cn[nH]c3-c3cc(Cl)c4c(c3)CCC(=O)N4C)C2)C1 [Example 62, 8-Chloro-6-[4-[(2-ethylsulfonyl-2,6-diazaspiro[3.3]heptan-6-yl)methyl]-1H-pyrazol-3-yl]-1-methyl-3,4-dihydroquinolin-2-one] | > 30 nM | – |
| CC(=O)N1CC2(CN(Cc3cn[nH]c3-c3ccc4c(c3Cl)CCC(=O)N4C)C2)C1 [Example 59, 6-[4-[(2-Acetyl-2,6-diazaspiro[3.3]heptan-6-yl)methyl]-1H-pyrazol-3-yl]-5-chloro-1-methyl-3,4-dihydroquinolin-2-one] | > 30 nM | – |
